Measured values from PMC11579209, “Population pharmacokinetics and exposure–response relationships of maribavir in transplant recipients with cytomegalovirus infection” (Journal of Pharmacokinetics and Pharmacodynamics, 2024).
Like-named read-outs stand apart in the source and are kept apart here.

Columns and labels:
[1] = tested on: CMV; assay: Exposure–response analysis of efficacy, key secondary endpoint: CMV viremia clearance and symptom control at week 8 maintained through week 16 (SOLSTICE); assay type: in vivo, human
Procedure: (§1) The exposure–response analyses for maribavir were based on data collected from transplant recipients with CMV infections that were refractory to treatment with ganciclovir, valganciclovir, foscarnet, or cidofovir in the phase 3 SOLSTICE study (ClinicalTrials.gov: NCT02931539). SOLSTICE was a multicenter, open-label, active-controlled study in which patients were randomized 2:1 to receive maribavir 400 mg BID or IAT for 8 weeks, with 12 weeks of follow-up. The primary endpoint was confirmed CMV clearance at the end of week 8, and the key secondary endpoint was achievement of CMV clearance and symptom control at the end of week 8, maintained through week 16. TE CMV mutation conferring resistance to maribavir was assessed as an exploratory endpoint. Full details of the SOLSTICE study have been published previously.
(§2) Posterior Bayes parameters of the final PopPK model were used to derive rich concentration–time profiles for maribavir. Actual dosing history and factors affecting the PK of maribavir (i.e., body weight and time-varying presence of strong CYP3A4 inhibitors or strong CYP3A4 inducers) were considered in the predictions.
(§3) Data set preparation, exploration, visualization of the data and exposure-response analyses were performed using R® (version 4.0.5 for efficacy and resistance analyses; version 4.0.2 for safety analysis) with comprehensive R® archive network (CRAN) and Certara Strategic Consulting (CSC) package. Firth correction on logistic regression was done based on library “logistf”. Logistic regressions with log-linear exposure effect or Emax exposure effect were performed using NONMEM Version VII (version 7.4).
Maribavir exposure parameters (AUCss, Cmax.ss, and Ctrough.ss) were combined with the primary and key secondary efficacy endpoints, and with TE CMV mutations conferring resistance to maribavir from the SOLSTICE study. The following covariates were included in the dataset to identify potential influencing factors: transplant type (HCT, SOT); CMV DNA level (high, intermediate, low) at baseline; symptom status (symptomatic or asymptomatic) at baseline; CMV resistant at baseline (yes, no); donor (D) and recipient (R) CMV serostatus (D+/R−, D+/R+, or D−/R+, D−/R−); antilymphocyte use (yes, no); immune function status as measured by total white blood cells from hematology panel at baseline; CMV-specific CD4 + CD69 + and CD8 + CD69 + T cells from immune function assay as continuous variables at baseline; enrolling region (North America, Europe, Asia Pacific); prior use of CMV prophylaxis (yes, no); age (as a continuous parameter) and age group (12 to < 18 years; 18 to < 45 years; 45 to < 65 years; ≥65 years); sex (male, female); race and ethnicity; TE CMV maribavir-resistant mutations (yes, no); and temporal identification of maribavir resistance (no, on maribavir treatment, post-maribavir treatment).
The exposure–response analyses were performed using a logistic regression model whereby a response can be defined as 0 (non-responder) or 1 (responder). Logistic regression analyses were performed to explore potential associations with maribavir exposure and the probability of response. The logistic regression model had the following form, assuming that maribavir exposure is included in the model:1 [drawing 1]
Pi is the probability of the event in the ith patient and α is the baseline Ln (odds) of the event. The model assumes a linear exposure effect on logit scale, with the parameter α representing the intercept, while β1 represents the slope linking the exposure parameter (X1) of maribavir (AUCss, Cmax.ss, and Ctrough.ss) to the response. The statistical significance of α and β1 was tested in the logistic regression models with a p value of < 0.05, and 95% CIs were provided for each parameter. The odds ratio (OR) for β1 was derived for a specific unit increment of the PK parameter. […]

[2] = design: species or system human; details: in vivo
Procedure: as §1, §2, §3
Descriptive statistics were derived for TEAEs, TE serious AEs (SAEs), and TEAEs of special interest during the 8-week treatment phase. Based on the descriptive statistics results, key TEAEs were selected for a formal exposure–response analysis, and exposure parameters of maribavir (AUCday, Cmax.day, Cavg, AUCss, and Cmax.ss) derived from the final PopPK models were merged with retained TEAE. […]

[3] = cited from earlier work
[4] = tested on: Cytochrome P450 (CYP) 1A2; design: method as in PMID 12654667, doi:10.1016/j.bbmt.2018.12.600; details: formation of VP44469; cited from earlier work
[5] = tested on: plasma proteins; design: method as in earlier work; details: cited from earlier work
[6] = design: method as in PMID 18316526; details: concomitant ketoconazole; cited from earlier work
[7] = design: method as in PMID 31532960, PMID 30329038; details: doses up to 1200 mg BID, cited from earlier work
[8] = key secondary endpoint, reference <0.5%

CC(C)Nc1nc2cc(Cl)c(Cl)cc2n1[C@H]1O[C@@H](CO)[C@H](O)[C@@H]1O [maribavir]
Proportion of responders, key secondary endpoint ([1]; 1st quartile of AUCss): 31%
Proportion of responders, key secondary endpoint ([1]; 2nd quartile of AUCss): 25%
Proportion of responders, key secondary endpoint ([1]; 3rd quartile of AUCss, n = 9): 16%
Proportion of responders, key secondary endpoint ([1]; 4th quartile of AUCss, n = 3): 5%
Probability of being a responder, key secondary endpoint ([1]; baseline CD8 + CD69 + cell count ≥ 2%, otherwise reference, AUCss 200 µg∙h/mL): 77.9%
Probability of being a responder, key secondary endpoint ([1]; developed TE CMV maribavir-resistant mutation, CD8 + CD69 + < 0.5%, low CMV DNA, no prior prophylaxis, AUCss 200 µg∙h/mL): 2.5%
Patients meeting key secondary endpoint (clearance and symptom control at week 8, maintained through week 16) ([1]; exposure–response population n = 231, 400 mg BID, 44 patients): 19%
Probability of being a responder, key secondary endpoint ([1]; intermediate/high CMV DNA levels, otherwise reference, AUCss 200 µg∙h/mL): 19.7%
Logistic regression Estimate (SE): Intercept ([1]; key secondary endpoint): 0.814 (0.543)
OR (95% CI): prior use of CMV prophylaxis ([1]; key secondary endpoint): 0.441 (0.191, 0.969)
OR (95% CI): treatment-emergent CMV mutation conferring resistance to maribavir ([1]; key secondary endpoint): 0.0381 (2.97×10^–4, 0.284)
OR (95% CI): AUCss of maribavir ([1]; key secondary endpoint, increment of 50 µg·h/mL): 0.740 (0.611, 0.870)
Logistic regression Estimate (SE): baseline CD8+CD69+ cell count ≥2% [1, 8]: 1.65 (0.552)
OR (95% CI): baseline CD8+CD69+ cell count not reported [1, 8]: 0.899 (0.326, 2.34)
OR (95% CI): baseline CD8+CD69+ cell count ≥0.5% to <2% [1, 8]: 0.594 (0.159, 1.88)
OR (95% CI): baseline CD8+CD69+ cell count ≥2% [1, 8]: 5.18 (1.82, 15.9)
OR (95% CI): baseline CMV DNA level intermediate/high ([1]; key secondary endpoint, reference low): 0.363 (0.129, 0.910)
Relationship between maribavir exposure (AUCss) and probability of response for the key secondary endpoint ([1]; p = 0.001): negative relationship
Probability of being a responder, key secondary endpoint ([1]; prior use of CMV prophylaxis, otherwise reference, AUCss 200 µg·h/mL): 23.0%
Probability of being a responder, key secondary endpoint ([1]; reference: no TE mutation, CD8 + CD69 + < 0.5%, low CMV DNA, no prior prophylaxis, AUCss 200 µg∙h/mL): 40.3%
Relationship between probability of TE SAE and maribavir AUCday, AUCss, Cmax.ss, and Cavg ([2]; human): Statistically significant positive relationships
Relationship between probability of fatigue and maribavir exposure PK metrics [2]: Statistically significant positive relationships
Relationship between probability of taste disturbance and Cavg of maribavir [2]: statistically significant negative relationship
Time to steady-state exposure ([3]; 400 mg BID, transplant recipients with CMV infection): ≤ 2 days
PK in patients with mild or moderate hepatic impairment [3]: unaffected
Renal excretion as share of total clearance of unchanged drug [3]: < 2%
Systemic exposure in healthy Japanese individuals compared with White individuals [3]: higher
Mean half-life ([3]; healthy volunteers): 3.0 to 4.8 h
Median time to maximum plasma concentration (Tmax) ([3]; oral administration): 1 to 3 h
Dose proportionality of PK ([3]; single doses of up to 1600 mg and multiple doses up to 2400 mg per day): dose-proportional
Mean half-life ([3]; transplant recipients): 4.3 h
Share of CYP-mediated metabolism by CYP1A2 [4]: 15–30%
Bound to plasma proteins [5]: approximately 98%
Increase in maribavir AUC0-∞ [6]: 53%
Increase in maribavir Cmax [6]: 10%
Dose-related myelosuppression [7]: no evidence of dose-related myelosuppression
Incidence of dysgeusia across doses ([7]; transplant recipients with refractory CMV infection): similar
